Experimental findings from patent US20140137274A1, “INDUCED MALIGNANT STEM CELLS” (LSIP, LLC, priority 2011, published 2014) are described below.

This data set deals with cancer-related miRNAs. Put plainly: miRNA expression microarray (SurePrint G3 Human miRNA Microarray Rel.16.0). The note with it: logarithmic (log2) value of quotient vs control. The procedure:
Total RNA was prepared from each of six induced malignant stem cells, one induced non-malignant stem cell, and one induced pluripotent stem cell as mentioned above, and the prepared total RNAs were used in Agilent SurePrint G3 Human miRNA Microarray Rel.16.0 to detect abnormal expression (increased or reduced/lost expression) of non-coding RNAs such as endogenous cancer-related microRNAs in the induced malignant stem cells.
Complete Labeling Reagent and Hyb Kit in accordance with the Agilent protocol. To be specific, each sample total RNA (100 ng) was dephosphorylated with Calf Intestine Alkaline Phosphatase (CIP), and the RNA molecule on its 3′ terminal side was labeled with a cyanine 3-cytidine bisphosphate (pCp-Cy3) molecule using T4 RNA Ligase.
The RNA samples labeled in (14-2-3) were hybridized with SurePrint G3 Human miRNA Microarray Rel.16.0 using Agilent miRNA Complete Labeling Reagent and Hyb Kit. To be specific, each of the labeled RNAs was added to a hybridization buffer and allowed to hybridize on SurePrint G3 Human miRNA Microarray Rel.16.0 for 20 hours. After washing, the DNA microarray image was scanned by Agilent Microarray Scanner, and fluorescence signals from the spots were digitized by Feature Extraction Software (v.10.7.3.1).
The miRNAs were annotated using miRBase Release 18, and hybridization was performed onto a microarray chip with the probes designed for the miRNAs shown in the following table (refer to Table 31 below).
In this analysis, the normalized value of the digital data for the hybridization of a subject cell (induced malignant stem cell) sample was divided by the normalized value from the digital data for the hybridization of a control cell sample and the quotient was used as a measure of variation in expression. Probes for which the quotients deviated from 1 (i.e., log21=0) were considered to indicate a variation in expression; those showing quotients greater than 2 (log22=1) or smaller than 0.5 (log20.5=−1) were selected. For each of the comparisons shown below, the genes shown in the tyrosine kinase list and those shown in the cancer drug targets list were analyzed to make respective lists of the genes showing quotients greater than 2 (log22=1) or smaller than 0.5 (log20.5=−1), as compared with the quotient for the control (taken as 1). The analysis was performed using GeneSpring 12.1.
The Normalized column represents a variation in expression in logarithmic values.

As to “hSA-lEt-7f-5p (AACTATACAATCTACTACCTC; chemistry not given here)”, under “[Ngc1_7]vs [Nib2_17]”, the “Normalized (variation in microRNA expression, subject cell / control cell)” value is 2.259.

Take “hsa-1et-7c (AACCATACAACCTACTACC; chemistry not given here)”: where the note is “[cc4_c]vs [Nfb2_17]”, the “Normalized (variation in microRNA expression, subject cell / control cell)” value is recorded as 4.789.

Consider “hsa-let-7a-5p (AACTATACAACCTACTACCT; chemistry not given here)”, for which the “Normalized (variation in microRNA expression, subject cell / control cell)” value ([Ngc1_7]vs [Nib2_17]) is given as 1.941; the “Normalized (variation in microRNA expression, subject cell / control cell)” value ([cc4_c]vs [Nfb2_17]) amounted to 5.026; the “Normalized (variation in microRNA expression, subject cell / control cell)” value ([gc1_6]vs [Ngc1_7]) is on record as −1.09; the “Normalized (variation in microRNA expression, subject cell / control cell)” value ([gc2_1]vs [Nfb2_17]) is reported as −1.233; the “Normalized (variation in microRNA expression, subject cell / control cell)” value ([gc2_5]vs [Nfb2_17]) is −1.334.

For the substance “hsa-let-7b-5p (AACCACACAACCTACTACC; chemistry not given here)”, the “Normalized (variation in microRNA expression, subject cell / control cell)” value ([gc1_6]vs [Ngc1_7]) was −1.937.

On to “hsa-let-7c (AACCATACAACCTACTACC; chemistry not given here)”, for which the “Normalized (variation in microRNA expression, subject cell / control cell)” value was 2.65 ([Ngc1_7]vs [Nib2_17]) and −1.801 ([gc1_6]vs [Ngc1_7]).

“hsa-let-7d-5p (AACTATGCAACCTACTACC; chemistry not given here)”: the “Normalized (variation in microRNA expression, subject cell / control cell)” value ([gc1_6]vs [Ngc1_7]) is on record as −1.545.

For the substance “hsa-let-7e-5p (AACTATACAACCTCCTACC; chemistry not given here)”, the “Normalized (variation in microRNA expression, subject cell / control cell)” value ([Ngc1_7]vs [Nib2_17]) is 3.356; the “Normalized (variation in microRNA expression, subject cell / control cell)” value ([cc4_c]vs [Nfb2_17]) amounted to 4.793; the “Normalized (variation in microRNA expression, subject cell / control cell)” value ([gc1_6]vs [Ngc1_7]) is −2.684; the “Normalized (variation in microRNA expression, subject cell / control cell)” value ([gc2_1]vs [Nfb2_17]) stood at 1.601; the “Normalized (variation in microRNA expression, subject cell / control cell)” value ([gc2_10]vs +Nfb2_17]) is 2.18.

As for “hsa-let-7f-5p (AACTATACAATCTACTACCTC; chemistry not given here)”, the “Normalized (variation in microRNA expression, subject cell / control cell)” value is, setting by setting: ([cc4_c]vs [Nfb2_17]) 5.523; ([gc1_6]vs [Ngc1_7]) −1.421.

Take “hsa-let-7g-5p (AACTGTACAAACTACTACCTC; chemistry not given here)”: the “Normalized (variation in microRNA expression, subject cell / control cell)” value ([gc1_6]vs [Ngc1_7]) was −1.935.

Regarding “hsa-let-7i-5p (AACAGCACAAACTACTACCTC; chemistry not given here)”, the “Normalized (variation in microRNA expression, subject cell / control cell)” value is on record as 2.747 ([Ngc1_7]vs [Nib2_17]), 4.054 ([cc4_c]vs [Nfb2_17]), −1.307 ([gc1_6]vs [Ngc1_7]) and 1.44 ([gcl_6]vs [Nfb2_17]).

In the case of “hsa-miR-7-5p (ACAACAAAATCACTAGTCTTCC; chemistry not given here)”, the “Normalized (variation in microRNA expression, subject cell / control cell)” value ([cc4_c]vs [Nfb2_17]) is 2.213.

“hsa-miR-15a-5p (CACAAACCATTATGTGCTGCT; chemistry not given here)”: the “Normalized (variation in microRNA expression, subject cell / control cell)” value ([cc4_c]vs [Nfb2_17]) was 1.163.

As to “hsa-miR-16-5p (CGCCAATATTTACGTGCTG; chemistry not given here)”, the “Normalized (variation in microRNA expression, subject cell / control cell)” value is on record as −5.228 ([gc2_1]vs [Nfb2_17]), −4.816 ([gc2_5]vs [Nfb2_17]) and −4.956 ([gc2_10]vs +Nfb2_17]).

Regarding “hsa-miR-17-5p (CTACCTGCACTGTAAGC; chemistry not given here)”, the “Normalized (variation in microRNA expression, subject cell / control cell)” value was −3.19 ([gc2_1]vs [Nfb2_17]) and −3.466 ([gc2_5]vs [Nfb2_17]).

Turning to “hsa-miR-18a-5p (CTATCTGCACTAGATGCA; chemistry not given here)”, for the setting “[cc4_c]vs [Nfb2_17]”, the “Normalized (variation in microRNA expression, subject cell / control cell)” value was −1.44.

As for “hsa-miR-20a-5p (CTACCTGCACTATAAGCAC; chemistry not given here)”, the “Normalized (variation in microRNA expression, subject cell / control cell)” value was −4.784 ([gc2_1]vs [Nfb2_17]), −4.951 ([gc2_5]vs [Nfb2_17]) and −5.12 ([gc2_10]vs +Nfb2_17]).

For the substance “hsa-miR-20b-5p (CTACCTGCACTATGAGCAC; chemistry not given here)”, the “Normalized (variation in microRNA expression, subject cell / control cell)” value is, setting by setting: ([cc4_c]vs [Nfb2_17]) −3.293; ([gc2_1]vs [Nfb2_17]) −3.152; ([gc2_5]vs [Nfb2_17]) −3.269; ([gc2_10]vs +Nfb2_17]) −3.502.

For “hsa-miR-21-5p (TCAACATCAGTCTGATAAGC; chemistry not given here)”, the “Normalized (variation in microRNA expression, subject cell / control cell)” value is, setting by setting: ([Ngc1_7]vs [Nib2_17]) 1.136; ([cc4_c]vs [Nfb2_17]) 2.904; ([gc2_1]vs [Nfb2_17]) −6.311; ([gc2_5]vs [Nfb2_17]) −6.38; ([gc2_10]vs +Nfb2_17]) −5.844.

With “hsa-miR-23b-3p (GGTAATCCCTGGCAATG; chemistry not given here)”, the “Normalized (variation in microRNA expression, subject cell / control cell)” value is reported as 1.154 ([Ngc1_7]vs [Nib2_17]), 3.268 ([cc4_c]vs [Nfb2_17]) and −1.014 ([gc1_6]vs [Ngc1_7]).

“hsa-miR-25-3p (TCAGACCGAGACAAGTGC; chemistry not given here)”: the “Normalized (variation in microRNA expression, subject cell / control cell)” value reads like this: ([gc2_1]vs [Nfb2_17]) −1.899; ([gc2_5]vs [Nfb2_17]) −1.478; ([gc2_10]vs +Nfb2_17]) −1.515.

On to “hsa-miR-27a-3p (GCGGAACTTAGCCACTG; chemistry not given here)”, for which the “Normalized (variation in microRNA expression, subject cell / control cell)” value ([Ngc1_7]vs [Nib2_17]) came to 1.084; the “Normalized (variation in microRNA expression, subject cell / control cell)” value ([cc4_c]vs [Nfb2_17]) was 3.755; the “Normalized (variation in microRNA expression, subject cell / control cell)” value ([gc1_6]vs [Ngc1_7]) is reported as −1.047.

In the case of “hsa-miR-27b-3p (GCAGAACTTAGCCACTGT; chemistry not given here)”, the “Normalized (variation in microRNA expression, subject cell / control cell)” value runs as follows: ([cc4_c]vs [Nfb2_17]) 2.569; ([gc2_1]vs [Nfb2_17]) −2.575; ([gc2_10]vs +Nfb2_17]) −2.297.

Consider “hsa-miR-29a-3p (TAACCGATTTCAGATGGTGC; chemistry not given here)”, for which the “Normalized (variation in microRNA expression, subject cell / control cell)” value is listed as 3.972 ([cc4_c]vs [Nfb2_17]) and −3.561 ([gc2_10]vs +Nfb2_17]).

In the case of “hsa-miR-29b-3p (AACACTGATTTCAAATGGTGC; chemistry not given here)”, under “[cc4_c]vs [Nfb2_17]”, the “Normalized (variation in microRNA expression, subject cell / control cell)” value is on record as 4.488.

In the case of “hsa-miR-34a-5p (ACAACCAGCTAAGACACTGC; chemistry not given here)”, the “Normalized (variation in microRNA expression, subject cell / control cell)” value was −2.608 ([gc2_1]vs [Nfb2_17]), −2.833 ([gc2_5]vs [Nfb2_17]) and −2.706 ([gc2_10]vs +Nfb2_17]).

As for “hsa-miR-34c-5p (GCAATCAGCTAACTACACTG; chemistry not given here)”, where the note is “[cc4_c]vs [Nfb2_17]”, the “Normalized (variation in microRNA expression, subject cell / control cell)” value is on record as 1.308.

Take “hsa-miR-96-5p (AGCAAAAATGTGCTAGTGCCAA; chemistry not given here)”: the “Normalized (variation in microRNA expression, subject cell / control cell)” value ([cc4_c]vs [Nfb2_17]) was 1.093.

As for “hsa-miR-124-3p (GGCATTCACCGCGTGC; chemistry not given here)”, the “Normalized (variation in microRNA expression, subject cell / control cell)” value by setting is: ([Ngc1_7]vs [Nib2_17]) 1.242; ([gcl_6]vs [Nfb2_17]) 1.88.

For “hsa-miR-125a-5p (TCACAGGTTAAAGGGTCTC; chemistry not given here)”, the “Normalized (variation in microRNA expression, subject cell / control cell)” value runs as follows: ([cc4_c]vs [Nfb2_17]) 1.809; ([gc1_6]vs [Ngc1_7]) −1.373; ([gc2_5]vs [Nfb2_17]) −1.149.

As for “hsa-miR-125b-5p (TCACAAGTTAGGGTCTC; chemistry not given here)”, the “Normalized (variation in microRNA expression, subject cell / control cell)” value is on record as 1.982 ([Ngc1_7]vs [Nib2_17]); 2.946 ([cc4_c]vs [Nfb2_17]); −1.393 ([gc1_6]vs [Ngc1_7]); −1.425 ([gc2_1]vs [Nfb2_17]); −2.411 ([gc2_5]vs [Nfb2_17]).

For “hsa-miR-130a-3p (ATGCCCTTTTAACATTGCA; chemistry not given here)”, the “Normalized (variation in microRNA expression, subject cell / control cell)” value is, setting by setting: ([cc4_c]vs [Nfb2_17]) −4.732; ([gc2_1]vs [Nfb2_17]) −5.267; ([gc2_5]vs [Nfb2_17]) −5.014; ([gc2_10]vs +Nfb2_17]) −5.029.
